Legend:
proteinase K = system: T1, proteinase K; test: Susceptibility to protease degradation; format: in vitro ADME; conditions: proteinase K (isolated protease) in TRIS buffer; 50 μg/mL peptide, 1 μg/mL proteinase K, 100 mM TRIS buffer pH 7.6, 25°C, 60 min; decrease of HPLC peak area (220 nm); read-out: Digestion with proteinase K (percentage of degraded peptide)
T1 construct: purchased Sigma-Aldrich Corporation, Spain
Protocol: Digestion of BP100 and of 16 selected lipopeptides was carried out by treating 50 μg/mL peptide with 1 μg/mL proteinase K (Sigma-Aldrich Corporation, Spain) in 100 mM TRIS buffer, pH 7.6, at 25°C. The peptide cleavage after 60 min was determined by HPLC using a Kromasil (4.6 × 40 mm; 3 μm particle size) C18 reverse-phase column. Linear gradients of 0.1% aqueous TFA and 0.1% TFA in CH3CN were run from 0.98:0.02 to 0:1 over 12 min with UV detection at 220 nm. Digestion was estimated as the percentage of degraded lipopeptide calculated from the decrease of the HPLC peak area of the native peptide.

[1] = system: Fusarium oxysporum f. sp. lycopersici FOL 3 race 2; test: MIC, antifungal growth inhibition in microtiter plates (PDB); format: cell-based; conditions: Fo, 22°C, seven days, OD 600 nm, lowest concentration with no growth, given as interval of tested concentrations, three replicates, experiment repeated twice
Outline: (§1)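 Conidial suspensions (10^3 conidia/mL P. expansum, 10^4 F. oxysporum) incubated with peptides in PDB with 0.003% chloramphenicol at 22 °C for seven days, OD600 read every 2 h. MIC is the lowest concentration with no growth at the end; triplicates, experiment repeated twice.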

[2] = system: Penicillium expansum EPS26; test: as above; format: cell-based; conditions: Pe, 22°C, seven days, OD 600 nm, lowest concentration with no growth, given as interval of tested concentrations, three replicates, experiment repeated twice
Outline: as §1

[3] = system: Erwinia amylovora PMV6076; test: MIC, growth inhibition in microtiter plates (TSB); format: cell-based; conditions: Ea, 25°C, 48 h, OD 600 nm, lowest concentration with no growth, given as interval of tested concentrations, three replicates, experiment repeated twice
Outline: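 Peptides, dissolved in water at 1 mM and filter-sterilized, were diluted and mixed with bacterial suspension (10^8 CFU mL^-1 before mixing) in TSB. Plates were incubated at 25°C with shaking, and OD600 was read hourly for 48 h. MIC was the lowest concentration with no growth at the end.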

[4] = system: Xanthomonas fragariae Xf349-9A; test: MIC, growth inhibition in microtiter plates (TSB); format: cell-based; conditions: Xf, 25°C, 48 h, OD 600 nm, lowest concentration with no growth, given as interval of tested concentrations, three replicates, experiment repeated twice
Outline: (§2)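 Agar-grown cells in water (10^8 CFU mL^-1 stock suspension) + serially diluted peptide (1 mM water stock) in TSB; 25°C, 48 h, OD600 hourly; no-growth endpoint gives MIC.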

[5] = system: Pseudomonas syringae pv. syringae EPS94; test: MIC, growth inhibition in microtiter plates (TSB); format: cell-based; conditions: Pss, 25°C, 48 h, OD 600 nm, lowest concentration with no growth, given as interval of tested concentrations, three replicates, experiment repeated twice
Outline: as §2

[6] = system: Xanthomonas axonopodis pv. vesicatoria 2133–2; test: MIC, growth inhibition in microtiter plates (TSB); format: cell-based; conditions: Xav, 25°C, 48 h, OD 600 nm, lowest concentration with no growth, given as interval of tested concentrations, three replicates, experiment repeated twice
Outline: as §2

[7] = system: Pseudomonas syringae pv. actinidiae Psa3700.1.1; test: MIC, growth inhibition in microtiter plates (TSB); format: cell-based; conditions: Psa, 25°C, 48 h, OD 600 nm, lowest concentration with no growth, given as interval of tested concentrations, three replicates, experiment repeated twice
Outline: as §2

[8] = system: Xanthomonas arboricola pv. pruni CFBP5563; test: MIC, growth inhibition in microtiter plates (TSB); format: cell-based; conditions: Xap, 25°C, 48 h, OD 600 nm, lowest concentration with no growth, given as interval of tested concentrations, three replicates, experiment repeated twice
Outline: as §2

tobacco leaves = test: Effect of peptide infiltration on tobacco leaves; format: in vivo; conditions: for Diameter of necrotic area in infiltrated tobacco leaves: 100 μL infiltrated, after 48 h
Protocol: BP100 and the 36 lipopeptides were evaluated for their effect upon infiltration on tobacco leaves as described previously. Peptide solutions of 50, 150 and 250 μM were infiltrated (100 μL) into the mesophylls of fully expanded tobacco leaves. Infiltrations were carried out in a single leaf, and for each peptide and dose, at least three leaves randomly distributed in different plants were inoculated. Control infiltrations with water (negative control) or melittin (positive control) at the same molar concentration were performed. The appearance of symptoms on the leaves was followed for 48 h after infiltration and measured as a lesion diameter.

Compound	metabolised at 1 h, 50 μg/mL (proteinase K) [%]	MIC [1] [µM]	MIC [2] [µM]	MIC [3] [µM]	MIC [4] [µM]	MIC [5] [µM]	MIC [6] [µM]	MIC [7] [µM]	MIC [8] [µM]	Size of the lesions in infiltrated tobacco leaves (diameter) (tobacco leaves; 250 μM, 100 μL infiltrated into mesophyll, measured after 48 h) [mm]	Diameter of necrotic area in infiltrated tobacco leaves (tobacco leaves; 50 μM) [cm]	Diameter of necrotic area in infiltrated tobacco leaves (tobacco leaves; 250 μM) [cm]
CCCCCC(=O)NCCCC[C@H](NC(=O)[C@H](CCCCN)NC(=O)[C@H](CCCCN)NC(C)=O)C(=O)N[C@@H](Cc1ccccc1)C(=O)N[C@@H](CCCCN)C(=O)N[C@@H](CCCCN)C(=O)N[C@H](C(=O)N[C@@H](CC(C)C)C(=O)N[C@@H](CCCCN)C(=O)N[C@@H](Cc1ccc(O)cc1)C(=O)N[C@@H](CC(C)C)C(N)=O)[C@@H](C)CC [BP370, Ac-KKK(COC5H11)FKKILKYL-NH2]	26	0.8 to 1.6	6.2 to 12.5	3.1 to 6.2	6.2 to 12.5	3.1 to 6.2	3.1 to 6.2	3.1 to 6.2	3.1 to 6.2	5.0 ± 1.6	–	–
CC[C@H](C)[C@H](NC(=O)CN)C(=O)NCC(=O)N[C@@H](C)C(=O)N[C@H](C(=O)N[C@@H](CC(C)C)C(=O)N[C@@H](CCCCN)C(=O)N[C@H](C(=O)N[C@@H](CC(C)C)C(=O)N[C@H](C(=O)N[C@H](C(=O)NCC(=O)N[C@@H](CC(C)C)C(=O)N1CCC[C@H]1C(=O)N[C@@H](C)C(=O)N[C@@H](CC(C)C)C(=O)N[C@H](C(=O)N[C@@H](CO)C(=O)N[C@@H](Cc1c[nH]c2ccccc12)C(=O)N[C@H](C(=O)N[C@@H](CCCCN)C(=O)N[C@@H](CCCNC(=N)N)C(=O)N[C@@H](CCCCN)C(=O)N[C@@H](CCCNC(=N)N)C(=O)N[C@@H](CCC(N)=O)C(=O)N[C@@H](CCC(N)=O)C(N)=O)[C@@H](C)CC)[C@@H](C)CC)[C@@H](C)O)[C@@H](C)O)C(C)C)C(C)C [melittin, reference compound]	–	–	–	–	–	–	–	–	–	–	1.1	2.3
CCCCCC(=O)NCCCC[C@H](NC(C)=O)C(=O)N[C@@H](CCCCN)C(=O)N[C@@H](CC(C)C)C(=O)N[C@@H](Cc1ccccc1)C(=O)N[C@@H](CCCCN)C(=O)N[C@@H](CCCCN)C(=O)N[C@H](C(=O)N[C@@H](CC(C)C)C(=O)N[C@@H](CCCCN)C(=O)N[C@@H](Cc1ccc(O)cc1)C(=O)N[C@@H](CC(C)C)C(N)=O)[C@@H](C)CC [BP368, Ac-K(COC5H11)KLFKKILKYL-NH2]	–	0.8 to 1.6	1.6 to 3.1	6.2 to 12.5	6.2 to 12.5	6.2 to 12.5	3.1 to 6.2	6.2 to 12.5	3.1 to 6.2	–	–	–
CCCCCCCCCCCC(=O)NCCCC[C@H](NC(=O)[C@H](CC(C)C)NC(=O)[C@H](CCCCN)NC(=O)[C@H](CCCCN)NC(C)=O)C(=O)N[C@@H](CCCCN)C(=O)N[C@@H](CCCCN)C(=O)N[C@H](C(=O)N[C@@H](CC(C)C)C(=O)N[C@@H](CCCCN)C(=O)N[C@@H](Cc1ccc(O)cc1)C(=O)N[C@@H](CC(C)C)C(N)=O)[C@@H](C)CC [BP395, Ac-KKLK(COC11H23)KKILKYL-NH2]	–	6.2 to 12.5	12.5 to 25	12.5 to 25	1.6 to 3.1	3.1 to 6.2	1.6 to 3.1	3.1 to 6.2	1.6 to 3.1	–	–	–

From article PMC6063448, “Antimicrobial activity of linear lipopeptides derived from BP100 towards plant pathogens” (PLoS ONE, 2018)
